Reference: US8399452B2, “Dibenzo[b,f][1,4]oxazepin-11-yl-N-hydroxybenzamides as HDAC inhibitors” (Methylgene Inc., priority 2006, dated 2013)
Where two headings read alike, the source gives them in different places.

Target: histone deacetylase (HDAC Enzyme)
Assay: Inhibition of Histone Deacetylase Enzymatic Activity (Boc-Lys(Ac)-AMC, Fluor-de-Lys developer)
Assay type: biochemical
Experimental: The following protocol is used to assay the compounds of the invention.
The mixture is pre-incubated for 5 minutes at room temperature. The reaction is started by bringing the temperature to 37° C. and adding 16 μl substrate. Total reaction volume is 50 μl.
In the Tables 8, 9 and 10, A≦[…]<B≦0.1 μM; 0.1 μM<C≦1 μM; and 1 μM<D≦10 μM.

[1] = Table 10, read-out: HDAC Inhibition (IC50 μM) HDAC Enzyme
[2] = read-out: HDAC Inhibtion (IC50 μM) HDAC Enzyme
[3] = Table 9, read-out: HDAC Inhibition (IC50 μM) HDAC Enzyme

| Compound | IC50 [1] [µM] | other results |
| --- | --- | --- |
| O=C(NO)c1cnc(N2CCCN(c3ncc(C(F)(F)F)cc3Cl)CC2)nc1 | < 0.05 | – |
| O=C(NO)c1cnc(N2C[C@@H]3C[C@]3(c3ccc(Cl)c(Cl)c3)C2)nc1 | 0.1 to 1 | – |
| O=C(NO)c1ccc(OCCN2C(=O)c3ccccc3Oc3ccccc32)cc1Cl | 1 to 10 | – |
| O=C(NO)c1ccc(OCCN2C(=O)c3ccccc3Oc3ccccc32)cc1F | 0.05 to 0.1 | – |
| O=C(CCCCCN1C(=O)c2ccccc2N(C2CC2)c2ccccc21)NO | 0.1 to 1 | – |
| O=C(CCCCCCN1C(=O)c2ccccc2N(C2CC2)c2ccccc21)NO | 0.1 to 1 | – |
| O=C(NO)c1ccc(C2=Nc3ccccc3S(=O)(=O)c3ccccc32)cc1 | – | IC50 [2]: 1 to 10 µM |
| O=C(NO)c1ccc(C2=Nc3ccccc3[S+]([O-])c3ccccc32)cc1 (stereo not shown) | – | IC50 [2]: 0.1 to 1 µM |
| O=C(NO)c1ccc(C2=Nc3cncnc3N3CCc4cccc2c43)cc1 | – | IC50 [2]: 0.1 to 1 µM |
| O=C(NO)c1cnc(N2C[C@@H]3C[C@H]2CN3c2cccc(S(F)(F)(F)(F)F)c2)nc1 | – | IC50 [3]: < 0.05 µM |
| O=C(C=C1c2ccccc2C=Cc2ccccc21)NO | 0.1 to 1 | – |
| O=C(C=C1c2ccccc2CCc2ccccc21)NO | 1 to 10 | – |
| O=C(CCCCCCCON=C1c2ccccc2CCc2ccccc21)NO | 0.1 to 1 | – |
| O=C(CCCCCCON=C1c2ccccc2CCc2ccccc21)NO | 0.1 to 1 | – |
| O=C(CCCCCON=C1c2ccccc2CCc2ccccc21)NO | 0.1 to 1 | – |
| O=C(CCCON=C1c2ccccc2CCc2ccccc21)NO | 0.1 to 1 | – |
| O=C(NO)c1ccc(CNC2c3ccccc3CCc3ccccc32)cc1 | < 0.05 | – |
| O=C(NO)c1ccc(CON=C2c3ccccc3CCc3ccccc32)cc1 | 0.1 to 1 | – |
| O=C(/C=C/c1ccc(CNC2c3ccccc3CCc3ccccc32)cc1)NO | 0.05 to 0.1 | – |
| O=C(NO)c1ccc(ON=C2c3ccccc3CCc3ccccc32)cc1 | 0.1 to 1 | – |

| Compound | IC50 [1] [µM] | other results |
| --- | --- | --- |
| O=C(NO)c1cnc(NC2c3ccccc3CCc3ccccc32)nc1 | < 0.05 | – |
| O=C(CCCCCON=c1c2ccccc2ccc2ccccc12)NO | 0.1 to 1 | – |
| O=C(CCCCON=C1c2ccccc2CCc2ccccc21)NO | 0.1 to 1 | – |
| O=C(NO)c1cnc(N2CCN(C3c4ccccc4CCc4ccccc43)CC2)nc1 | 0.1 to 1 | – |
| O=C(NO)c1cnc(NCC2c3ccccc3CCc3ccccc32)nc1 | < 0.05 | – |
| CN(c1ncc(C(=O)NO)cn1)C1c2ccccc2CCc2ccccc21 | < 0.05 | – |
| O=C(NO)c1cnc(NC2c3ccccc3C=Cc3ccccc32)nc1 | < 0.05 | – |
| O=C(CCCCCCN1c2ccccc2Oc2ccccc2S1(=O)=O)NO | 0.1 to 1 | – |
| O=C(CCCCCCC(=O)NC1c2ccccc2C=Cc2ccccc21)NO | 0.1 to 1 | – |
| O=C(CCCCCC(=O)NC1c2ccccc2C=Cc2ccccc21)NO | 0.1 to 1 | – |
| O=C(NO)c1cnc(NC2c3ccccc3C=C(F)c3ccccc32)nc1 (stereo not shown) | < 0.05 | – |
| O=C(NO)c1ccc(NC2c3ccccc3CCc3ccccc32)nc1 | < 0.05 | – |
| O=C(NO)c1cnc(C2c3ccccc3C=Cc3ccccc32)nc1 | 0.1 to 1 | – |
| O=C(NO)c1cn2c(n1)sc1ccccc12 | 0.1 to 1 | – |
| O=C(NO)c1ccc(COC2c3ccccc3CCc3ccccc32)cc1 | 0.1 to 1 | – |
| O=C(NO)c1cccc(COC2c3ccccc3CCc3ccccc32)c1 | 0.1 to 1 | – |
| O=C(NO)c1cccc(CNC2c3ccccc3CCc3ccccc32)c1 | 0.1 to 1 | – |
| O=C(Cc1ccc(CN2C(=O)c3ccccc3Oc3ccccc32)cc1)NO | 0.1 to 1 | – |
| O=C(NO)c1cnc(N2C[C@H]3C[C@@]3(c3cccc(C(F)(F)F)c3)C2)nc1 | 0.1 to 1 | – |
| O=C(NO)c1cnc(N2C[C@H]3C[C@@]3(c3ccc(C(F)(F)F)cc3)C2)nc1 | 0.1 to 1 | – |

| Compound | IC50 [1] [µM] | other results |
| --- | --- | --- |
| O=C(CCn1cc(CN2C(=O)c3ccccc3Oc3ccccc32)nn1)NO | 0.1 to 1 | – |
| CN1CCN(C2=Nc3cc(C(=O)NO)ccc3Oc3ccccc32)CC1 | – | IC50 [2]: 0.1 to 1 µM |
| O=C(/C=C/c1ccc(CN2C(=O)c3ccccc3Oc3ccccc32)cc1)NO | < 0.05 | – |
| O=C(/C=C/c1ccc(CN2C(=O)CN=C(c3ccccc3)c3ccccc32)cc1)NO | 0.05 to 0.1 | – |
| O=C(NO)c1ccc(/C=C/CN2C(=O)c3ccccc3Oc3ccccc32)cc1 | 0.05 to 0.1 | – |
| O=C(NO)c1cnc(N2CC3CC2CO3)nc1 (stereo not shown) [2-(2-oxa-5-azabicyclo[2.2.1]heptan-5-yl)-N-hydroxypyrimidine-5-carboxamide] | – | IC50 [3]: 0.1 to 1 µM |
| N#Cc1cccc(N2CC3CC2CN3c2ncc(C(=O)NO)cn2)c1 (stereo not shown) [2-(5-(3-cyanophenyl)-2,5-diazabicyclo[2.2.1]heptan-2-yl)-N-hydroxypyrimidine-5-carboxamide] | – | IC50 [3]: < 0.05 µM |
| O=C(NO)c1cnc(NC2c3ccccc3-c3ccccc32)nc1 [2-(9H-fluoren-9-ylamino)-N-hydroxypyrimidine-5-carboxamide] | 0.1 to 1 | – |
| O=C(NO)c1cnc(N2C[C@H]3C[C@@]3(c3ccc(Cl)c(Cl)c3)C2)nc1 [2-((1R,5S)-1-(3,4-dichlorophenyl)-3-azabicyclo[3.1.0]hexan-3-yl)-N-hydroxypyrimidine-5-carboxamide] | 0.1 to 1 | – |
| O=C(NO)c1cnc(N2C[C@@H]3C[C@H]2CN3)nc1 [2-((1S,4S)-2,5-diazabicyclo[2.2.1]heptan-2-yl)-N-hydroxypyrimidine-5-carboxamide] | – | IC50 [3]: 0.1 to 1 µM |
| O=C(NO)c1cnc(N2C[C@@H]3C[C@H]2CN3c2ccc3c(c2)OC(F)(F)O3)nc1 [2-((1S,4S)-5-(2,2-difluorobenzo[d][1,3]dioxol-5-yl)-2,5-diazabicyclo[2.2.1]heptan-2-yl)-N-hydroxypyrimidine-5-carboxamide] | – | IC50 [3]: < 0.05 µM |
| O=C(NO)c1cnc(N2C[C@@H]3C[C@H]2CN3C(=O)C(c2ccccc2)c2ccccc2)nc1 [2-((1S,4S)-5-(2,2-diphenylacetyl)-2,5-diazabicyclo[2.2.1]heptan-2-yl)-N-hydroxypyrimidine-5-carboxamide] | – | IC50 [3]: 0.05 to 0.1 µM |
| O=C(NO)c1cnc(N2C[C@@H]3C[C@H]2CN3c2ccc(C(F)(F)F)cc2F)nc1 [2-((1S,4S)-5-(2-fluoro-4-(trifluoromethyl)phenyl)-2,5-diazabicyclo[2.2.1]heptan-2-yl)-N-hydroxypyrimidine-5-carboxamide] | – | IC50 [3]: < 0.05 µM |
| O=C(NO)c1cnc(N2C[C@@H]3C[C@H]2CN3c2cc(C(F)(F)F)cc(C(F)(F)F)c2)nc1 [2-((1S,4S)-5-(3,5-bis(trifluoromethyl)phenyl)-2,5-diazabicyclo[2.2.1]heptan-2-yl)-N-hydroxypyrimidine-5-carboxamide] | – | IC50 [3]: < 0.05 µM |
| CN(C)Cc1cccc(N2C[C@@H]3C[C@H]2CN3c2ncc(C(=O)NO)cn2)c1 [2-((1S,4S)-5-(3-((dimethylamino)methyl)phenyl)-2,5-diazabicyclo[2.2.1]heptan-2-yl)-N-hydroxypyrimidine-5-carboxamide] | – | IC50 [3]: < 0.05 µM |
| O=C(NO)c1cnc(N2C[C@@H]3C[C@H]2CN3c2cccc(OC(F)F)c2)nc1 [2-((1S,4S)-5-(3-(difluoromethoxy)phenyl)-2,5-diazabicyclo[2.2.1]heptan-2-yl)-N-hydroxypyrimidine-5-carboxamide] | – | IC50 [3]: < 0.05 µM |
| CN(C)C(=O)c1cccc(N2C[C@@H]3C[C@H]2CN3c2ncc(C(=O)NO)cn2)c1 [2-((1S,4S)-5-(3-(dimethylcarbamoyl)phenyl)-2,5-diazabicyclo[2.2.1]heptan-2-yl)-N-hydroxypyrimidine-5-carboxamide] | – | IC50 [3]: < 0.05 µM |
| O=C(NO)c1cnc(N2C[C@@H]3C[C@H]2CN3c2cccc(F)c2)nc1 [2-((1S,4S)-5-(3-fluorophenyl)-2,5-diazabicyclo[2.2.1]heptan-2-yl)-N-hydroxypyrimidine-5-carboxamide] | – | IC50 [3]: < 0.05 µM |
